# Key:
# Format in all cases: biochemical
# Human PKK = target: T1, Human PKK (Homo sapiens, UniProt P03952); assay: Inhibition of PKK using an endpoint assay (human PKK); conditions: fluorogenic substrate H-Pro-Phe-Arg-AMC, 1 h room temperature, method names human or rat PKK, table does not say which
# T1 construct: purchased Enzyme Research Laboratories
# How it was run: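 Endpoint fluorescence (ex 355 nm, em 460 nm) after stopping with 1 μM final PPACK II. Buffer: Tris 100 mM pH 7.8, NaCl 150 mM, BSA 0.1%, Tween20 0.05%, with 1% DMSO present; enzyme is human plasma kallikrein.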
# human TK1 = target: T2, human TK1 (Homo sapiens, UniProt P06870); assay: Inhibition of TK1 (Ki); conditions: activated human TK1, substrate H-Pro-Phe-Arg-AMC, 24° C.
# T2 construct: purchased R&D Systems
# T2 sequence (P06870 25-262): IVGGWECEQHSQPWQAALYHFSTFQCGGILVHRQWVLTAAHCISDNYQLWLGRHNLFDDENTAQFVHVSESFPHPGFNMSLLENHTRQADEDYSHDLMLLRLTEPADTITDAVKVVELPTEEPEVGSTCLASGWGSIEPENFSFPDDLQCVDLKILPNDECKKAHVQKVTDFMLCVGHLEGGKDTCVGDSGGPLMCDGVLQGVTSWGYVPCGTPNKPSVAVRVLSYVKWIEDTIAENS
# Method: The ability of compounds of formula (I) to inhibit plasma kallikrein (PKK), Factor XIIa (FXIIa), Factor XIa (FXIa), Factor Xa (FXa), Factor IIa (alpha-thrombin; FIIa), plasmin, trypsin, tissue kallikrein 1 (TK1), Factor VIIa (FVIIa), or FVIIa complexed with Tissue Factor, phospholipids and CaCl2 (FVIIa/TF/PL/CaCl2) is determined using the following biochemical assays in assay buffer (100 mM Tris, 150 mM NaCL, adjusted to a pH of 7.8 with HCl, and containing 0.1% (w/v) BSA and 0.05% (v/v) Tween20) in the presence of 1% (v/v) DMSO:
# Prior to the assay, human TK1 (R&D Systems) is activated by incubation with human trypsin (Calbiochem) in a 1:10,000 ratio for 15 min at 37° C. For assaying TK1 inhibitory activity, activated TK1 (31.25 nM or 1 U/mL) is incubated at 24° C. with 0.1 mM fluorogenic substrate H-Pro-Phe-Arg-AMC (11295 from Bachem) and various concentrations of the test compound in assay buffer. Measurements are performed in a kinetic interval every 2nd minute for 16 min using a Spectramax M5 (Molecular Devices) with the following settings of the wavelength excitation of 350 nm and wavelength emission of 450 nm.
# The pIC50 values are then fitted using a four-parametric fitting procedure using GraphPad Prism (version 6; GraphPad Software, Inc.). Respective Ki values are obtained by correction of the IC50 values for the respective KM value of the used substrate (see Table A for the obtained KM values of the used substrates) using the following formula:
# [formula] Where the IC50 is in molar and the KM value in mM.
# [1] = target: T3, PKK in kaolin activated human platelet poor plasma (Homo sapiens, UniProt P03952); assay: Inhibition of PKK in kaolin activated human PPP; conditions: 25-750 μg/mL kaolin, global fit, text b200 calls the values IC90;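 note: readout is the rate of fluorogenic substrate cleavage in rfu per min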
# T3 construct: Platelet poor plasma (PPP) obtained from human wholeblood; from tissue
# T3 sequence (P03952 391-638 limits assumed): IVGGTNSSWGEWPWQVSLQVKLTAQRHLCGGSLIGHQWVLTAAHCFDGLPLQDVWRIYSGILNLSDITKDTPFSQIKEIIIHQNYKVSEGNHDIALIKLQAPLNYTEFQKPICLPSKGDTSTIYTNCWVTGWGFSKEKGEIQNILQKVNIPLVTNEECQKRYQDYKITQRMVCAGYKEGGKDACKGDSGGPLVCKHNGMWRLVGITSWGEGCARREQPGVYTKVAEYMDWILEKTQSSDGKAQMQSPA
# T3 sequence (P03952 20-390 limits assumed): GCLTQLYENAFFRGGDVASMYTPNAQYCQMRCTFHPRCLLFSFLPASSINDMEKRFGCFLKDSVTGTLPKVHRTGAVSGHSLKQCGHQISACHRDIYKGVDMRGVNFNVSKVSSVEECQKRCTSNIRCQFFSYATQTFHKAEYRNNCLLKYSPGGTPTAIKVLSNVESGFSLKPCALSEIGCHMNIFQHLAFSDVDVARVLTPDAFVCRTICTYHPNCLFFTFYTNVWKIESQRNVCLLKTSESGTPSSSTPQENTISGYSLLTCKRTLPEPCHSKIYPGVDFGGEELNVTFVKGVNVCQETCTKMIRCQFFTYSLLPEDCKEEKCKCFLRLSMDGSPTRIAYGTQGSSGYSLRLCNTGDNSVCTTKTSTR
# Method: Platelet poor plasma (PPP) obtained from human wholeblood, anticoagulated with Na-Citrate, is incubated with various concentrations of the test compound together with either 25, 75, 250, or 750 μg/mL kaolin in assay buffer for 20 min at 37° C. such that for each kaolin dose used a concentration response is obtained for the test compound.
# T1 sequence (P03952 20-390 limits assumed): as above
# T1 sequence (P03952 391-638 limits assumed): as the sequence (P03952 391-638 limits assumed) above
Structure (SMILES),IC50 (Human PKK),Ki (human TK1),IC50 [1]
"Cn1cnc2c1CC[C@H]2NC(=O)c1cn(Cc2ccc(N3CC4(CC4)C3)nc2C(F)F)nn1 [Example 4, 1-[(6-{5-Azaspiro[2.3]hexan-5-yl}-2-(difluoromethyl)-pyridin-3-yl)methyl]-N-[(4R)-1-methyl-1H,4H,5H,6H-cyclo-penta[d]imidazol-4-yl]-1H-1,2,3-triazole-4-carboxamide]",0.9 nM,> 10000 nM,184 nM
"Cn1cnc2c1CC[C@H]2NC(=O)c1cn(Cc2ccc(N3CC4(CC4)C3)nc2Br)cn1 [Example 16, 1-[(6-{5-Azaspiro[2.3]hexan-5-yl}-2-bromopyridin-3-yl)methyl]-N-[(4R)-1-methyl-1H,4H,5H,6H-cyclopenta[d]imidazol-4-yl]-1H-imidazole-4-carboxamide]",0.6 nM,> 10000 nM,280 nM
"CCc1nc(N2CC3(CC3)C2)ccc1Cn1cc(C(=O)N[C@@H]2CCc3c2ncn3C)nn1 [Example 20, 1-[(6-{5-Azaspiro[2.3]hexan-5-yl}-2-ethylpyridin-3-yl)methyl]-N-[(4R)-1-methyl-1H,4H,5H,6H-cyclo-penta[d]imidazol-4-yl]-1H-1,2,3-triazole-4-carboxamide]",0.7 nM,> 10000 nM,99 nM
"CCc1nc(N2CC3CC3C2)ccc1Cn1cc(C(=O)N[C@@H]2CCc3c2ncn3C)cn1 (stereo partly drawn) [Example 22, 1-[(6-{3-Azabicyclo[3.1.0]hexan-3-yl}-2-ethylpyridin-3-yl)methyl]-N-[(4R)-1-methyl-1H,4H,5H,6H-cyclopenta[d]imidazol-4-yl]-1H-pyrazole-4-carboxamide]",0.5 nM,> 10000 nM,249 nM
"Cc1nc(N2CC3CC3C2)ccc1Cn1cnc(C(=O)N[C@@H]2CCc3c2ncn3C)c1 (stereo partly drawn) [Example 23, 1-[(6-{3-Azabicyclo[3.1.0]hexan-3-yl}-2-methylpyridin-3-yl)methyl]-N-[(4R)-1-methyl-1H,4H,5H,6H-cyclopenta[d]imidazol-4-yl]-1H-imidazole-4-carboxamide]",1.1 nM,> 10000 nM,233 nM
"Cc1nc(N2CC3C(C2)C3(F)F)ccc1Cn1cnc(C(=O)N[C@@H]2CCc3c2ncn3C)c1 (stereo partly drawn) [Example 24, 1-[(6-{6,6-Difluoro-3-azabicyclo[3.1.0]hexan-3-yl}-2-methylpyridin-3-yl)methyl]-N-[(4R)-1-methyl-1H,4H,5H,6H-cyclopenta[d]imidazol-4-yl]-1H-imidazole-4-carboxamide]",1 nM,> 10000 nM,181 nM
"Cc1nc(N2CC3C(C2)C3(F)F)ccc1Cn1cc(C(=O)N[C@@H]2CCc3c2ncn3C)nn1 (stereo partly drawn) [Example 27, 1-[(6-{6,6-Difluoro-3-azabicyclo[3.1.0]hexan-3-yl}-2-methylpyridin-3-yl)methyl]-N-[(4R)-1-methyl-1H,4H,5H,6H-cyclopenta[d]imidazol-4-yl]-1H-1,2,3-triazole-4-carboxamide]",0.9 nM,> 10000 nM,202 nM
"CCc1nc(N2CC3C(C2)C3(F)F)ccc1Cn1cc(C(=O)N[C@@H]2CCc3c2ncn3C)cn1 (stereo partly drawn) [Example 36, 1-[(6-{6,6-Difluoro-3-azabicyclo[3.1.0]hexan-3-yl}-2-ethylpyridin-3-yl)methyl]-N-[(4R)-1-methyl-1H,4H,5H,6H-cyclopenta[d]imidazol-4-yl]-1H-pyrazole-4-carboxamide]",0.5 nM,> 10000 nM,180 nM
"Cc1cc(N2CC3CC3C2)ncc1Cn1cc(C(=O)N[C@@H]2CCc3c2ncn3C)cn1 (stereo partly drawn) [Example 113, 1-[(6-{3-Azabicyclo[3.1.0]hexan-3-yl}-4-methylpyridin-3-yl)methyl]-N-[(4R)-1-methyl-1H,4H,5H,6H-cyclopenta[d]imidazol-4-yl]-1H-pyrazole-4-carboxamide]",9.9 nM,> 10000 nM,
"Cc1nc(N2CC3(CC3)C2)ncc1Cn1cc(C(=O)N[C@@H]2CCc3c2ncn3C)cn1 [Example 222, 1-[(2-{5-Azaspiro[2.3]hexan-5-yl}-4-methylpyrimidin-5-yl)methyl]-N-[(4R)-1-methyl-1H,4H,5H,6H-cyclopenta[d]imidazol-4-yl]-1H-pyrazole-4-carboxamide]",11.6 nM,7280 nM,

# From US12479827B2, “Heteroaromatic carboxamide derivatives as plasma kallikrein inhibitors” (Boehringer Ingelheim International GmbH, priority 2020, dated 2025)
